Assay results from ChEMBL document CHEMBL5042531, “N-Substituted 5-(1H-Indol-2-yl)-2-methoxyanilines Are Allosteric Inhibitors of the Linoleate Oxygenase Activity of Selected Mammalian ALOX15 Orthologs: Mechanism of Action” (J Med Chem, 2022).
Activity calls are given as the source filed them. The calls are words filed in the database; no cut-off is given here.

Assays:
[1] = biological target: T1, Polyunsaturated fatty acid lipoxygenase ALOX15 (Oryctolagus cuniculus, UniProt P12530); test: Inhibition of wild type rabbit N-terminal His-tagged ALOX15 expressed in Escherichia coli using arachidonic acid as substrate by spectrophotometric assay
T1 sequence (P12530 whole entry): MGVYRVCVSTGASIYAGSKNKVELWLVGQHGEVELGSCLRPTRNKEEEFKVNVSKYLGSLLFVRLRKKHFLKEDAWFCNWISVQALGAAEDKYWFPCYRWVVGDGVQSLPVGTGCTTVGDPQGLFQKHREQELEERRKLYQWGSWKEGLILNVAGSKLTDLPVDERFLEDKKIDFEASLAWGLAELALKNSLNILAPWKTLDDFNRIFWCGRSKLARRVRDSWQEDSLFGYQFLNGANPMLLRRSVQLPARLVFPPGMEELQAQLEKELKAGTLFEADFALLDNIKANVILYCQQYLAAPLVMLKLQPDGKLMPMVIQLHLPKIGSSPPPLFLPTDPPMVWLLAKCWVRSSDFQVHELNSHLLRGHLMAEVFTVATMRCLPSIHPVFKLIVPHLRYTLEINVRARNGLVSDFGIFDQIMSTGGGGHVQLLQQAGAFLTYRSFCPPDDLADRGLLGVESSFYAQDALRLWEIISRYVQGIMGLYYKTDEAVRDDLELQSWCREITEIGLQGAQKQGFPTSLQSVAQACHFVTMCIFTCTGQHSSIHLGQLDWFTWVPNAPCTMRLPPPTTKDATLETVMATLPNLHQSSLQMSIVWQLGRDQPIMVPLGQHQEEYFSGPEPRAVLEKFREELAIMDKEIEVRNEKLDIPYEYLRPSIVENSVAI

[2] = biological target: T2, Polyunsaturated fatty acid lipoxygenase ALOX15 (Oryctolagus cuniculus) (UniProt P12530); test: Selectivity ratio of IC50 for inhibition of wild type Rabbit N-terminal His-tagged ALOX15 expressed in Escherichia coli using linoleic acid as substrate to IC50 for inhibition of wild type rabbit N-terminal His-tagged ALOX15 expressed in Escherichia coli using arachidonic acid as substrate by spectrophotometric assay
T2 sequence (whole entry): T1 sequence (P12530 whole entry)

[3] = biological target: T1, Polyunsaturated fatty acid lipoxygenase ALOX15; test: Inhibition of wild type rabbit N-terminal His-tagged ALOX15 expressed in Escherichia coli using linoleic acid as substrate by spectrophotometric assay
[4] = biological target: T2, Polyunsaturated fatty acid lipoxygenase ALOX15 (Oryctolagus cuniculus); test: Inhibition of wild type rabbit N-terminal His-tagged ALOX15 expressed in Escherichia coli assessed as decrease in Kcat using linoleic acid as substrate
[5] = biological target: T2, Polyunsaturated fatty acid lipoxygenase ALOX15 (Oryctolagus cuniculus); test: Inhibition of wild type rabbit N-terminal His-tagged ALOX15 expressed in Escherichia coli assessed as effect on Km using linoleic acid as substrate
[6] = biological target: T1, Polyunsaturated fatty acid lipoxygenase ALOX15; test: Non-competitive inhibition of wild type rabbit N-terminal His-tagged ALOX15 expressed in Escherichia coli assessed as inhibition constant using linoleic acid as substrate
[7] = biological target: T2, Polyunsaturated fatty acid lipoxygenase ALOX15 (Oryctolagus cuniculus); test: Inhibition of wild type rabbit N-terminal His-tagged ALOX15 expressed in Escherichia coli assessed as decrease in Kcat using arachidonic acid as substrate
[8] = biological target: T2, Polyunsaturated fatty acid lipoxygenase ALOX15 (Oryctolagus cuniculus); test: Effect on rabbit wild type ALOX15-mediated product pattern using arachidonic acid as substrate by 4 uM by RP-HPLC analysis
[9] = biological target: T1, Polyunsaturated fatty acid lipoxygenase ALOX15; test: Mixed mode inhibition of wild type Rabbit N-terminal His-tagged ALOX15 expressed in Escherichia coli assessed as inhibition constant using linoleic acid as substrate
Oryctolagus cuniculus [10] = organism: Oryctolagus cuniculus; test: Effect on rabbit wild type ALOX15 Ile418Ala mutant-mediated product pattern using arachidonic acid as substrate by 4 uM by RP-HPLC analysis
[11] = Inhibition of rabbit N-terminal His-tagged ALOX15 L183E/L192E double mutant expressed in Escherichia coli linoleic acid as substrate by spectrophotometric assay; set-up: species or system Oryctolagus cuniculus
[12] = Inhibition of rabbit N-terminal His-tagged ALOX15 L183E/L192E double mutant expressed in Escherichia coli arachidonic acid as substrate by spectrophotometric assay; set-up: species or system Oryctolagus cuniculus
[13] = biological target: T1, Polyunsaturated fatty acid lipoxygenase ALOX15; test: Mixed mode inhibition of wild type Rabbit N-terminal His-tagged ALOX15 expressed in Escherichia coli assessed as inhibition constant using arachidonic acid as substrate
[14] = biological target: T3, Polyunsaturated fatty acid lipoxygenase ALOX15 (Homo sapiens) (UniProt P16050); test: Selectivity ratio of IC50 for inhibition of recombinant human N-terminal His-tagged ALOX15 expressed in Escherichia coli Rosetta2(DE3)pLysS using linoleic acid as substrate to IC50 for inhibition of recombinant human N-terminal His-tagged ALOX15 expressed in Escherichia coli Rosetta2(DE3)pLysS using arachidonic acid as substrate
T3 sequence (whole entry): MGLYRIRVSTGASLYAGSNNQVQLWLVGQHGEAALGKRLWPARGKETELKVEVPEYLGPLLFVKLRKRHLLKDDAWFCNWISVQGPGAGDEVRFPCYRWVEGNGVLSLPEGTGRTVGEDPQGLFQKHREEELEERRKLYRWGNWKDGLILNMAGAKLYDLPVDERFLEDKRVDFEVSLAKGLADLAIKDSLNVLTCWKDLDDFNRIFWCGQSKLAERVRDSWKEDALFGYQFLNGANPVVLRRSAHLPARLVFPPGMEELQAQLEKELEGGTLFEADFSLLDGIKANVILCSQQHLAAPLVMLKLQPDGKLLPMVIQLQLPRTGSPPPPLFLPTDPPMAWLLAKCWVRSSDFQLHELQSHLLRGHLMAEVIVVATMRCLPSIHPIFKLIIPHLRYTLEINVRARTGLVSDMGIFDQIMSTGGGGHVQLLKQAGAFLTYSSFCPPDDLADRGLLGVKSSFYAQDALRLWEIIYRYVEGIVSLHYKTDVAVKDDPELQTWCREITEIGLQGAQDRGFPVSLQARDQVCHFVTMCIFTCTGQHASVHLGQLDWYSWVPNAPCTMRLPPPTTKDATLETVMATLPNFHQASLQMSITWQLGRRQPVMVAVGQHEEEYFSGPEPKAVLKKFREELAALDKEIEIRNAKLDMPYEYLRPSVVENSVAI

[15] = biological target: T2, Polyunsaturated fatty acid lipoxygenase ALOX15 (Oryctolagus cuniculus); test: Selectivity ratio of IC50 for inhibition of wild type rabbit N-terminal His-tagged ALOX15 expressed in Escherichia coli using linoleic acid as substrate to IC50 for inhibition of wild type rabbit N-terminal His-tagged ALOX15 expressed in Escherichia coli using arachidonic acid as substrate
Oryctolagus cuniculus [16] = organism: Oryctolagus cuniculus; test: Effect on rabbit wild type ALOX15 Ile418Ala mutant-mediated product pattern assessed as reduction in 12-H(p)ETE formation using arachidonic acid as substrate by 4 uM by RP-HPLC analysis
[17] = biological target: T4, Polyunsaturated fatty acid lipoxygenase ALOX15 (Mus musculus) (UniProt P39654); test: Inhibition of recombinant mouse N-terminal His-tagged ALOX15 expressed in Escherichia coli Rosetta2(DE3)pLysS at 2 uM using arachidonic acid as substrate by HPLC analysis
T4 sequence (whole entry): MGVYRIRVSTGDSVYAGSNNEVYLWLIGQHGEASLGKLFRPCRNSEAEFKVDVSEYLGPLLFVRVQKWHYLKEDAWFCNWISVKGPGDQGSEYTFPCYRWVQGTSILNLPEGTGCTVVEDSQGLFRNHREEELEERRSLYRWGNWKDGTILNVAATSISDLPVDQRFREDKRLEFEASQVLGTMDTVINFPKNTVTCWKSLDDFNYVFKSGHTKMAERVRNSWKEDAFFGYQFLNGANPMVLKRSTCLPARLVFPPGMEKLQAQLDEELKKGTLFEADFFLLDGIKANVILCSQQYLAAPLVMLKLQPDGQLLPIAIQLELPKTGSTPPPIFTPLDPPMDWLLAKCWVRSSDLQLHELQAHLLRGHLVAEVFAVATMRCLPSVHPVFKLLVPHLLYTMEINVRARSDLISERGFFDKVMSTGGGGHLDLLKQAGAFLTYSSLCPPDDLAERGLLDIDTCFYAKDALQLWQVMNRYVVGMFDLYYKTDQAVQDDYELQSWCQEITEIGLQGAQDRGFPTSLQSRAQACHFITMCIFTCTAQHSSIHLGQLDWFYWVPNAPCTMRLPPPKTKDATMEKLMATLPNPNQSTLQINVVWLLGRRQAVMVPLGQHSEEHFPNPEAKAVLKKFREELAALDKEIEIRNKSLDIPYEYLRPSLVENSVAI

[18] = biological target: T4, Polyunsaturated fatty acid lipoxygenase ALOX15 (Mus musculus); test: Inhibition of recombinant mouse N-terminal His-tagged ALOX15 expressed in Escherichia coli Rosetta2(DE3)pLysS at 2 uM using linoleic acid as substrate by HPLC analysis
[19] = compound: COc1ccc(-c2cc3cc(F)ccc3[nH]2)cc1NS(=O)(=O)NC(=O)OCC(C)C; test: Inhibition of wild type Rabbit N-terminal His-tagged ALOX15 expressed in Escherichia coli assessed as effect on Km using arachidonic acid as substrate; settings: Oryctolagus cuniculus

For `CCCCCCCCOC(=O)NS(=O)(=O)Nc1cc(-c2cc3cc(F)ccc3[nH]2)ccc1OC`, the IC50 [1] was 1080 nM, the Ratio IC50 [2] was 0.043 and the IC50 [3] was 47 nM.

For `COc1ccc(-c2cc3cc(F)ccc3[nH]2)cc1NS(=O)(=O)NC(=O)OCC(C)C`, the Activity [4] was “Active”, the IC50 [1] was 20800 nM and the Activity [5] was “Active”. For the same molecule, the Ratio IC50 [2] was 0.02, the Ki [6] was 290 nM and the IC50 [3] was 420 nM. For the same molecule, the inhibition [7] was “Active”.

`C=CCOC(=O)NS(=O)(=O)Nc1cc(-c2cc3ccccc3[nH]2)ccc1OC` showed an IC50 [1] of 43300 nM, a Ratio IC50 [2] of 0.014 and an IC50 [3] of 630 nM.

For `CCCCCCCCOC(=O)NS(=O)(=O)Nc1cccc(-c2cc3ccccc3[nH]2)c1`, the Activity [8] was “inactive”, the Ki [9] was 790 nM and the Activity (Oryctolagus cuniculus [10]) was “inactive”. It also gave an IC50 [1] of 2790 nM, an IC50 [11] of 7020 nM and an IC50 [12] of 4950 nM. It also gave a Ratio IC50 [2] of 0.55, a Ki [6] of 790 nM and an IC50 [3] of 1550 nM. The Ki [13] was 3130 nM.

With `COc1ccc(-c2cc3cc(F)c(F)cc3[nH]2)cc1NS(=O)(=O)NC(=O)OCC(C)C` the Ratio IC50 [14] was 0.03.

`CCCCc1ccc(S(=O)(=O)NCCc2c(-c3ccc(OC)cc3)[nH]c3ccccc23)cc1` gave a Ratio IC50 [15] of 0.22.

In the case of `C=CCOC(=O)NS(=O)(=O)Nc1cccc(-c2cc3ccccc3[nH]2)c1`, the IC50 [1] is reported as over 50000 nM and the IC50 [3] is reported as 15400 nM.

For `CCCCCCCCOC(=O)NS(=O)(=O)Nc1cc(-c2cc3ccccc3[nH]2)ccc1OC`, the Activity (Oryctolagus cuniculus [16]) was “Active”, the Activity [8] was “inactive” and the Activity [4] was “Active”. For the same molecule, the Activity [5] was “Active”, the inhibition [17] was “inactive” and the inhibition [18] was “inactive”. The inhibition [7] was “Active”.

For `CCCCCc1ccc(S(=O)(=O)NCCc2c[nH]c3ccccc23)cc1`, the Ratio IC50 [15] was 0.8.

For `C=CCOC(=O)NS(=O)(=O)Nc1cc(-c2cc3cc(F)ccc3[nH]2)ccc1OC`, the IC50 [1] was 23300 nM, the Ratio IC50 [2] was 0.023 and the IC50 [3] was 540 nM.

Molecule `CCCCCc1ccc(S(=O)(=O)NCCc2nc(-c3ccccn3)[nH]c2-c2ccc(OC)cc2)cc1` has a Ratio IC50 [15] of 0.02.

Molecule `COc1ccc(-c2cc3ccccc3[nH]2)cc1NS(=O)(=O)NC(=O)OCC(C)C` has an IC50 [1] of over 50000 nM and an IC50 [3] of 1450 nM.

With `CC(C)COC(=O)NS(=O)(=O)Nc1cccc(-c2cc3ccccc3[nH]2)c1` the IC50 [1] was over 50000 nM and the IC50 [3] was 30000 nM.

B1: Polyunsaturated fatty acid lipoxygenase ALOX15 (Oryctolagus cuniculus), P12530 (protein)
chain: T1 sequence (P12530 whole entry)
For B1, the Km [19] was “Active”.
